Laboratory results: ChEMBL document CHEMBL1201862, “PubChem BioAssay data set” (2004)
Active and inactive are the calls of the source.

Experiments:
Coagulation factor XII = target: T1, Coagulation factor XII (Homo sapiens, UniProt P00748); format: functional;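 note: activated factor XIIa alpha cleaving a fluorogenic AMC peptide substrate; inhibitor potency from loss of enzyme activity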
T1 sequence (P00748 whole entry): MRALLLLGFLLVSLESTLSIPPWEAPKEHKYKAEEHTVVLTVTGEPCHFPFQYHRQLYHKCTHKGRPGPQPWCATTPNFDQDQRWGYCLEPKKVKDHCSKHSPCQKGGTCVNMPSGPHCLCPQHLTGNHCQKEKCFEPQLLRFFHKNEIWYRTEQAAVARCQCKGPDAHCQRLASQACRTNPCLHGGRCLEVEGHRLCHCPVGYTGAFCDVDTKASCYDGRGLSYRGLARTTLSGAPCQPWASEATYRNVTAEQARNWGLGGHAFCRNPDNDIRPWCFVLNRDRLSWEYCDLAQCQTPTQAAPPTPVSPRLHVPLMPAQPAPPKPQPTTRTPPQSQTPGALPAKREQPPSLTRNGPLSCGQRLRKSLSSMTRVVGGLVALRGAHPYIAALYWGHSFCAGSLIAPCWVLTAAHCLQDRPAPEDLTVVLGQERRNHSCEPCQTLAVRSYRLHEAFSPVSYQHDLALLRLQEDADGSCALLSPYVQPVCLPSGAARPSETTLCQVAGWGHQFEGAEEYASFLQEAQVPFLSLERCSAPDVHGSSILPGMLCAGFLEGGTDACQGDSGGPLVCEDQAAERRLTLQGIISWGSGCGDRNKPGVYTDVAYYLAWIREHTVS

Orexin receptor type 2 [1] = target: T2, Orexin receptor type 2 (Homo sapiens, UniProt O43614); experiment: Counterscreen assay for antagonists of the orexin 1 receptor (OX1R; HCRTR1): Homogeneous Time Resolved Fluorescence (HTRF)-based cell-based dose response assay for antagonists of the orexin 2 receptor (OX2R; HCRTR2), run by assay provider.; format: functional
T2 sequence (O43614 whole entry): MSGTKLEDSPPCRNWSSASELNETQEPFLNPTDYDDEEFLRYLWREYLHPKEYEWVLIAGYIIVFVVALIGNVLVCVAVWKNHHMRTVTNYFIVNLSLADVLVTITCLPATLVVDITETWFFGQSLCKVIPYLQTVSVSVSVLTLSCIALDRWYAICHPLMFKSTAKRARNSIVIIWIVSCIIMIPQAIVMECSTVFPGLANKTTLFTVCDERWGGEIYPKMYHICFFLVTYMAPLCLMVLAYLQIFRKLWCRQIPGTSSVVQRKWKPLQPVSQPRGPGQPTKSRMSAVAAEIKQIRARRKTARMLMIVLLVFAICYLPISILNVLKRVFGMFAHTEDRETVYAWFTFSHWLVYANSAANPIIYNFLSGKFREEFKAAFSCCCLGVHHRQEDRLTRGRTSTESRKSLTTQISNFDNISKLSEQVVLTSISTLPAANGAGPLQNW

[2] = target: T3, Orexin/Hypocretin receptor type 1 (Homo sapiens, UniProt O43613); experiment: Homogeneous Time Resolved Fluorescence (HTRF)-based cell-based high throughput dose response assay for antagonists of the orexin 1 receptor (OX1R; HCRTR1). [Related pubchem assays (depositor defined):AID434989, AID435008, AID463079, AID485270, AID492963, AID492964, AID492965, AID493232, AID504717, AID504718]; format: functional
T3 sequence (O43613 whole entry): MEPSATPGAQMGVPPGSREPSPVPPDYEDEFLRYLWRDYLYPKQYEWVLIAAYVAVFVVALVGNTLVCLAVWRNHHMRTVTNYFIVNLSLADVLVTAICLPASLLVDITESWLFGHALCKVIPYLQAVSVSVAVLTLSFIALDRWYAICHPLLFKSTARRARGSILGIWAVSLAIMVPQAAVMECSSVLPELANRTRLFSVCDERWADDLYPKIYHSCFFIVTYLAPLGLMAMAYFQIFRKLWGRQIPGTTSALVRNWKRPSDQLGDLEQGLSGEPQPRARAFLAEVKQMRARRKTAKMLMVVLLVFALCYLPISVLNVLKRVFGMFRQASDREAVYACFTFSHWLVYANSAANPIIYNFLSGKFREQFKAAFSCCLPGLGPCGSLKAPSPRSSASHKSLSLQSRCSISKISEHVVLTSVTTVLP

[3] = (§1) Counterscreen for antagonists of the orexin 1 receptor (OX1R; HCRTR1): Fluorescence-based cell-based high throughput dose response assay to identify antagonists of the parental CHO cell line. [Related pubchem assays (depositor defined):AID434989, AID435008, AID463079, AID485270, AID492963, AID492964, AID492965, AID493232, AID504699, AID504701]; format: functional
CHO-K1 = experiment: as §1, with “Homogeneous time resolved fluorescence (HTRF)-based” for “Fluorescence-based”, “cell-based” for “cell-based high throughput”, “CHO-K1” for “CHO”; format: functional; details: Cricetulus griseus;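 note: potency for inhibition of ATP-stimulated IP1 production as antagonists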
Orexin receptor type 2 [4] = target: T2, Orexin receptor type 2; experiment: Counterscreen assay for antagonists of the orexin 1 receptor (OX1R; HCRTR1): Fluorescence-based cell-based dose response assay for antagonists of the orexin 2 receptor (OX2R; HCRTR2), run by assay provider.; format: functional
[5] = target: T3, Orexin/Hypocretin receptor type 1; experiment: Fluorescence-based cell-based high throughput dose response assay for antagonists of the orexin 1 receptor (OX1R; HCRTR1). [Related pubchem assays (depositor defined):AID434989, AID435008, AID463079, AID485270, AID492963, AID492964, AID492965, AID493232, AID504717, AID504718]; format: functional
[6] = target: DNA dC->dU-editing enzyme APOBEC-3G (Homo sapiens, UniProt Q9HC16); experiment: inhibition of APOBEC3G ssDNA deamination – biochemical, fluorescence, single-stranded DNA substrate, SAR follow-up (AID 602136); format: functional; details: read-out: IC50_Mean
Sequence of DNA dC->dU-editing enzyme APOBEC-3G (Q9HC16 whole entry): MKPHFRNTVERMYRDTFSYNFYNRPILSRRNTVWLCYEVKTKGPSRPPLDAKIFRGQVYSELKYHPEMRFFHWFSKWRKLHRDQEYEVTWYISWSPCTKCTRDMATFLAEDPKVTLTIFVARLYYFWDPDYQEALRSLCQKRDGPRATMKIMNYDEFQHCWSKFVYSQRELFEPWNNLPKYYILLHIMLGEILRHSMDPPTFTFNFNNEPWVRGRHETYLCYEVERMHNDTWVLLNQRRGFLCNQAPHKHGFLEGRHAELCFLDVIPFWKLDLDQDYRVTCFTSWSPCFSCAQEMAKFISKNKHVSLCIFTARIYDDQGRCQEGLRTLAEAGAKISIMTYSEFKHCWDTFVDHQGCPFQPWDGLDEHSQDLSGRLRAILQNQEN

[7] = target: DNA dC->dU-editing enzyme APOBEC-3A (Homo sapiens, UniProt P31941); experiment: SAR analysis of small molecule inhibitors of APOBEC3A DNA Deaminase via a fluorescence-based single-stranded DNA deaminase assay.; format: functional; details: read-out: IC50_Mean
Sequence of DNA dC->dU-editing enzyme APOBEC-3A (P31941 whole entry): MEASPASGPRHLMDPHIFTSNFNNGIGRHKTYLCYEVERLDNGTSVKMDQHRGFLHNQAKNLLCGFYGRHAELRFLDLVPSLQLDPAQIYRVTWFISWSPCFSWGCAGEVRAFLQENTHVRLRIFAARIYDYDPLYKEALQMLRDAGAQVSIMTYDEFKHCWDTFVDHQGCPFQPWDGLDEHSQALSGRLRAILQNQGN

[8] = target: T4, Probable nicotinate-nucleotide adenylyltransferase (Staphylococcus aureus (strain N315), UniProt P65502); format: functional, Staphylococcus aureus subsp. aureus N315; details: read-out: IC50_Mean;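 for IC50 Mean: confirmatory dose-response retesting of NadD inhibitor hits first found in an ultra-high-throughput screen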
T4 sequence (P65502 whole entry): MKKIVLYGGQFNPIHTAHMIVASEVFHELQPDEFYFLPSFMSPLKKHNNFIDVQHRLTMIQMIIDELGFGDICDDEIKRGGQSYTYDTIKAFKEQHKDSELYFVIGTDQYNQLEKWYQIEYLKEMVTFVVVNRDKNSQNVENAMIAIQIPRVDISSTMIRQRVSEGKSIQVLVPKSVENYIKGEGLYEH

[9] = target: T4, Probable nicotinate-nucleotide adenylyltransferase; format: functional, Staphylococcus aureus subsp. aureus N315
[10] = target: Induced myeloid leukemia cell differentiation protein Mcl-1 (Homo sapiens, UniProt Q07820); format: functional
Sequence of Induced myeloid leukemia cell differentiation protein Mcl-1 (Q07820 whole entry): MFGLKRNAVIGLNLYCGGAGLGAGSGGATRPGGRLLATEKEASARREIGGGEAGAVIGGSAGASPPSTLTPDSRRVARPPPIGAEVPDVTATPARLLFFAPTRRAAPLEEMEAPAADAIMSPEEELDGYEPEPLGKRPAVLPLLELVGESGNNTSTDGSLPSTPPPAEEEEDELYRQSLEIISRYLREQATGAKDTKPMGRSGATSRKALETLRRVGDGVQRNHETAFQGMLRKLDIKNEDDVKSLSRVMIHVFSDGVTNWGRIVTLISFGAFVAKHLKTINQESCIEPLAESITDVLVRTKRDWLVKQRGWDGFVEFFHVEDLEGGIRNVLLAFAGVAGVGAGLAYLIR

[11] = target: Benomyl/methotrexate resistance protein (Candida albicans, UniProt P28873); experiment: Candida albicans Mdr1 pump inhibition curves – singleplex, Cherry Pick1 hits, dose response (AID 588608); format: functional
Sequence of Benomyl/methotrexate resistance protein (P28873 whole entry): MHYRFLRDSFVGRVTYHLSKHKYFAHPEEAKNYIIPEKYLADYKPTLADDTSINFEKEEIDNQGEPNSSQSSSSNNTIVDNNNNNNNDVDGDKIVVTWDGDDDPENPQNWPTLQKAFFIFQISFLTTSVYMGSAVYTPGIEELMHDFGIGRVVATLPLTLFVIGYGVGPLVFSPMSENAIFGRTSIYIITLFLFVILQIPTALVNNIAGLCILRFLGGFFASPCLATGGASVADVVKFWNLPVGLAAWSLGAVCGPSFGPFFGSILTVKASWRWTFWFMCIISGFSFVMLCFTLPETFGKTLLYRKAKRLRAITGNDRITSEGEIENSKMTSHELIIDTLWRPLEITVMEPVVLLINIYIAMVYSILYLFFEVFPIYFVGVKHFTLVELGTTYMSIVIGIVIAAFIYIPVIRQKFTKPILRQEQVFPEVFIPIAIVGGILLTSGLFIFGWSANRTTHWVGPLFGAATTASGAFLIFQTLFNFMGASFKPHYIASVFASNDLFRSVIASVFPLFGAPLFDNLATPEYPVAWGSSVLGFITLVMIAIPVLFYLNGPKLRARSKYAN

cells = format: functional
[12] = target: T5, Multidrug resistance protein CDR2 (Candida albicans (strain SC5314 / ATCC MYA-2876) (Yeast), UniProt P78595); experiment: inhibition of Nile Red efflux via Candida CDR2 – S. cerevisiae AD1-8u, singleplex, Cherry Pick1 hits, dose response (AID 588604); format: functional
T5 sequence (P78595 whole entry): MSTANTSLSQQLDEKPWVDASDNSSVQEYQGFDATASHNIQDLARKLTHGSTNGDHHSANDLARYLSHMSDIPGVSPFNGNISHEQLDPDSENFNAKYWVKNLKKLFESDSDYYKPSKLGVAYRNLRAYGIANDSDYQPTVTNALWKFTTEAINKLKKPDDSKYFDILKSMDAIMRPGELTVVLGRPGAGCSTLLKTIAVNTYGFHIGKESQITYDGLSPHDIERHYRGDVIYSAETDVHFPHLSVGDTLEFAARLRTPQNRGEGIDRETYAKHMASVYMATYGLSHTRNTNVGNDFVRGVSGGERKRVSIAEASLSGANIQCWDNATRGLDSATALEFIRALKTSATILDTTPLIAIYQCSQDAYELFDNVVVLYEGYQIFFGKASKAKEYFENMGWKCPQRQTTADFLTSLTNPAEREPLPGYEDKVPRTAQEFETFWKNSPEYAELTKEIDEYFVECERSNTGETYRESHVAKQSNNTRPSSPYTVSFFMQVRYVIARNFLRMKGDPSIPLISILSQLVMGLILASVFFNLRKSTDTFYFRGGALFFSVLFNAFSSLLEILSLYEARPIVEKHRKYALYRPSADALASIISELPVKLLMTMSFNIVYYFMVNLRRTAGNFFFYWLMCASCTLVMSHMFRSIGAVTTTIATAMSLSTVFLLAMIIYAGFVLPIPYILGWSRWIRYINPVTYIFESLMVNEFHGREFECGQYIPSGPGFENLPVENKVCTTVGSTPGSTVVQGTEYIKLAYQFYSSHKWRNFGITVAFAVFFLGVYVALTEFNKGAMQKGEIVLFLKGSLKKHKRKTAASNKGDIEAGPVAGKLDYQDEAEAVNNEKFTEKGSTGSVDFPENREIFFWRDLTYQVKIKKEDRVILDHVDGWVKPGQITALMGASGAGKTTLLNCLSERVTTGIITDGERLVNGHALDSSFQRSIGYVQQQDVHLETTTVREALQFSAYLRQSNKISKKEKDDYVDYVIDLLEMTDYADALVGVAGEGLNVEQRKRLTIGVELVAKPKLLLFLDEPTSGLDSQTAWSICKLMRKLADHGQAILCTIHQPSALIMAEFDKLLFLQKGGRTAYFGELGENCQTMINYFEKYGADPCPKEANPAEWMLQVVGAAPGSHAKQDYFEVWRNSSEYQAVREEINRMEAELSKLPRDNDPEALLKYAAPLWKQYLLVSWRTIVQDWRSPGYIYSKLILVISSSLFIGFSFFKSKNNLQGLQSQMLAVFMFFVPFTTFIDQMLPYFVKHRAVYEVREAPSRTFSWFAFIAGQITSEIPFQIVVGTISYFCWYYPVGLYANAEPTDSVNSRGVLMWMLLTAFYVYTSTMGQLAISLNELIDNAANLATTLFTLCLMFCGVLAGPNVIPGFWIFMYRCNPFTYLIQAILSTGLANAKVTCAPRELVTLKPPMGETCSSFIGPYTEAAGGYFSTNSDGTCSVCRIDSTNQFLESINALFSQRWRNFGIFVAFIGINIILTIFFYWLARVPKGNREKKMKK

Cc1ccc(C(=O)N/C(=C/c2ccc(-c3cccc([N+](=O)[O-])c3)o2)C(=O)NC(C)(C)C)cc1
IC50 (Coagulation factor XII): > 50 µM (inactive)
IC50 (Orexin receptor type 2 [1]): 2.42 µM (active)
IC50 [2]: 2.09 µM (active)
IC50 [3]: > 49.8 µM (inactive)
IC50 (CHO-K1): > 66.3 µM (inactive)
IC50 (Orexin receptor type 2 [4]): 27.9 µM (inactive)
IC50 [5]: > 5.53 µM (active)

CCC(C)n1c(SCC(=O)NCc2ccco2)nnc1-c1cccc(S(=O)(=O)N2CCOCC2)c1 (stereo not given)
IC50 [6]: > 99 µM (inactive)
IC50 [7]: > 99 µM (inactive)

COc1ccc(/C=C2\SC(=O)N(CCC(=O)Nc3ccc(S(=O)(=O)Nc4nccs4)cc3)C2=O)cc1
IC50 [8]: 73.1 µM (active)
IC50 [9]: 15.2 µM (active)
IC50 [10]: 3.11 µM (active)

COc1ccc(CCOC(=O)c2ccc(N)c([N+](=O)[O-])c2)cc1
EC50 [11]: 0.011 µM (active)
IC50 (cells): 21 µM (active)
EC50 [12]: 4.29 µM (active)
